Structures can show the parent of a compound that is named as a salt. Where two headings read alike, the source gives them in different places.
Experiments:
[1] = in vivo, cited from earlier work
[2] = tested on: PONV; settings: Scuderi et al. (2002); cited from earlier work
[3] = tested on: postoperative vomiting and nausea (PONV); assay: Prevention of PONV using a single intravenous dose of palonosetron (hysterectomy patients); assay type: in vivo, human; settings: for patients who had received rescue therapy: by 24 hours; for Time to Failure (hr) (median): emesis or rescue medication, whichever first; for patients who experienced one or more emetic episodes: at 12 hours; for patients who had experienced an emetic episode: at 24 hours; for patients who experienced an emetic episode: two hours postrecovery; for Nausea Mean Score / No Nausea (patients) / Severe Nausea (patients): during 24 hours after recovery
Protocol: A study was conducted to test the efficacy and safety of five doses of intravenously administered palonosetron for the prophylaxis of postoperative vomiting and nausea. A total of 381 women, 24-80 years of age, scheduled for abdominal or vaginal hysterectomy and having ASA physical status rating of I or II were enrolled in this study. All patients received balanced general anesthesia, including N2O plus an opiate. Study medication, palonosetron, was administered over 30 seconds through a peripheral IV line at skin closure at the conclusion of the surgical procedure.

[4] = tested on: postoperative vomiting and nausea (PONV); assay: Oral administration of palonosetron for prophylaxis of PONV (elective laparoscopic surgery patients); assay type: in vivo, human; settings: for % no EE / % with CR: 4 hours after recovery; for % no EE / % with CR / % no EE (no emetic episodes) / % with CC (complete control) / % with CR (complete response): evaluable patients; for % no EE (no emetic episodes) / % with CC (complete control) / % with CR (complete response): 24 hours after recovery; for Nausea Mean Score / No Nausea (patients) / Severe Nausea (patients): during 24 hours after recovery; for patients free from emetic episodes: first 4 hours of recovery
Protocol: A study was performed to test the efficacy, safety, and pharmacokinetics of five doses of orally administered palonosetron for the prophylaxis of postoperative vomiting and nausea. Three hundred fifty-one patients, 308 women and 43 men, 19-75 years of age, scheduled for elective laparoscopic surgical procedures and having an ASA physical status rating of I and II were enrolled in this study. All patients received balanced general anesthesia, including […] plus an opiate. Doses of palonosetron were calculated based on thee patient's body weight at the screening visit, rounded to the nearest kilogram. Each dose was diluted to a total volume of 25 mL by adding sterile water to the dosing cup. The dosing cup was rinsed with 25 mL of sterile water and the patient also swallowed this 25 mL. Study medication was administered 2 hours prior to scheduled induction of anesthesia for surgeries requiring nasogastric suction and 1 hour prior to scheduled induction of anesthesia for all other laparoscopic surgical procedures.

[5] = Stability of palonosetron in solution; assay type: physicochemical; settings: dependence on concentration
[6] = 0.1 μg/kg IV, 24 hours after recovery, evaluable patients
[7] = 0.3 μg/kg IV, 4 hours after recovery
[8] = 0.3 μg/kg IV, 24 hours after recovery, evaluable patients
[9] = 1 μg/kg IV, 4 hours after recovery
[10] = 1.0 μg/kg IV, 24 hours after recovery, evaluable patients
[11] = 3.0 μg/kg IV, 24 hours after recovery, evaluable patients
[12] = 30 μg/kg IV, 4 hours after recovery
[13] = 30 μg/kg IV, 24 hours after recovery, evaluable patients

SMILES: CN1C2CCCC1CC(NC(=O)c1nn(C)c3ccccc13)C2 (stereo not shown) [Kytril, granisetron hydrochloride]
- plasma half-life [1]: 1.77 to 17.73 h

SMILES: O=C(O[C@@H]1C[C@@H]2C[C@H]3C[C@H](C1)N2CC3=O)c1c[nH]c2ccccc12 [dolasetron]
- serum half life [1]: approximately 7.5 hours

SMILES: Cc1nccn1CC1CCc2c(c3ccccc3n2C)C1=O (stereo not shown) [ondansetron]
- serum half life [1]: ~5.5 h
- serum half life ([1]; listed as Zofran): 5 to 6 h
- patients requiring additional therapy after treatment [2]: 38-50%

SMILES: Cl.O=C1c2cccc3c2[C@H](CCC3)CN1[C@@H]1CN2CCC1CC2 [palonosetron, (3aS)-2,3,3a,4,5,6-Hexahydro-2-[(S)-1-Azabicyclo[2.2.2]oct-3-yl]2,3,3a,4,5,6-hexahydro-1-oxo-1Hbenz[de]isoquinoline]
- Duration of Effect: Emetic Episode (25th Percentile) ([3]; 0.1 μg/kg IV): 2.2 h
- Duration of Effect: Emetic Episode, second line of values (percentile not given) ([3]; 0.1 μg/kg IV): >24 h
- Duration of Effect: Rescue (50th percentile) ([3]; 0.1 μg/kg IV): 8.5 h
- % with CR ([3]; 0.1 μg/kg IV, 4 hours after recovery): 57%
- % no EE [3, 6]: 55%
- % with CC (complete control) [3, 6]: 34%
- % with CR (complete response) [3, 6]: 34%
- patients who had received rescue therapy ([3]; 0.1 μg/kg IV): 59.6%
- Time to Failure (hr) (median) ([3]; 0.1 μg/kg IV): 6.0 h
- Duration of Effect: Emetic Episode (25th Percentile) ([3]; 0.3 μg/kg IV): 8.4 h
- Duration of Effect: Emetic Episode, second line of values (percentile not given) ([3]; 0.3 μg/kg IV): >24 h
- Duration of Effect: Rescue (50th percentile) ([3]; 0.3 μg/kg IV): 9.9 h
- % no EE [3, 7]: 90%
- % with CR [3, 7]: 72%
- % no EE [3, 8]: 60%
- % with CC (complete control) [3, 8]: 33%
- % with CR (complete response) [3, 8]: 34%
- patients who experienced one or more emetic episodes ([3]; 0.3 μg/kg IV): 29.9%
- patients who had experienced an emetic episode ([3]; 0.3 μg/kg IV): 40.3%
- patients who had received rescue therapy ([3]; 0.3 μg/kg IV): 59.7%
- Time to Failure (hr) (median) ([3]; 0.3 μg/kg IV): 9.6 h
- patients who experienced an emetic episode ([3]; 0.3 μg/kg IV): 10.4%
- Duration of Effect: Emetic Episode (25th Percentile) ([3]; 1 μg/kg IV): 21.8 h
- Duration of Effect: Emetic Episode, second line of values (percentile not given) ([3]; 1 μg/kg IV): >24 h
- Duration of Effect: Rescue (50th percentile) ([3]; 1 μg/kg IV): 21.3 h
- % no EE [3, 9]: 92%
- % with CR [3, 9]: 69%
- % no EE [3, 10]: 73%
- % with CC (complete control) [3, 10]: 44%
- % with CR (complete response) [3, 10]: 44%
- patients who experienced one or more emetic episodes ([3]; 1 μg/kg IV): 14.5%
- patients who had experienced an emetic episode ([3]; 1 μg/kg IV): 27.4%
- patients who had received rescue therapy ([3]; 1 μg/kg IV): 51.6%
- Nausea Mean Score ([3]; 1 μg/kg IV): 0.82
- No Nausea (patients) ([3]; 1 μg/kg IV): 36.1%
- Severe Nausea (patients) ([3]; 1 μg/kg IV): 3.3%
- Time to Failure (hr) (median) ([3]; 1.0 μg/kg IV): 19.5 h
- patients who experienced an emetic episode ([3]; 1 μg/kg IV): 6.5%
- nausea reported versus placebo ([3]; 1 μg/kg, 3 μg/kg, and 30 μg/kg IV, 24-hour period following recovery): statistically significantly less nausea
- Duration of Effect: Emetic Episode (25th Percentile) ([3]; 3 μg/kg IV): 4.9 h
- Duration of Effect: Emetic Episode, second line of values (percentile not given) ([3]; 3 μg/kg IV): >24 h
- Duration of Effect: Rescue (50th percentile) ([3]; 3 μg/kg IV): 8.0 h
- % with CR ([3]; 3 μg/kg IV, 4 hours after recovery): 66%
- % no EE [3, 11]: 61%
- % with CC (complete control) [3, 11]: 30%
- % with CR (complete response) [3, 11]: 30%
- Nausea Mean Score ([3]; 3 μg/kg IV): 0.92
- No Nausea (patients) ([3]; 3 μg/kg IV): 34.8%
- Severe Nausea (patients) ([3]; 3 μg/kg IV): 3.0%
- Time to Failure (hr) (median) ([3]; 3.0 μg/kg IV): 7.3 h
- Duration of Effect: Emetic Episode (25th Percentile) ([3]; 30 μg/kg IV): >24 h
- Duration of Effect: Emetic Episode, second line of values (percentile not given) ([3]; 30 μg/kg IV): >24 h
- Duration of Effect: Rescue (50th percentile) ([3]; 30 μg/kg IV): 23.2 h
- % no EE [3, 12]: 94%
- % with CR [3, 12]: 66%
- % no EE [3, 13]: 76%
- % with CC (complete control) [3, 13]: 45%
- % with CR (complete response) [3, 13]: 45%
- patients who experienced one or more emetic episodes ([3]; 30 μg/kg IV): 13.4%
- patients who had experienced an emetic episode ([3]; 30 μg/kg IV): 23.9%
- patients who had received rescue therapy ([3]; 30 μg/kg IV): 50.7%
- Nausea Mean Score ([3]; 30 μg/kg IV): 0.66
- No Nausea (patients) ([3]; 30 μg/kg IV): 47.8%
- Time to Failure (hr) (median) ([3]; 30 μg/kg IV): 15.0 h
- patients who experienced an emetic episode ([3]; 30 μg/kg IV): 4.5%
- patients free from emetic episodes ([3]; 0.3-, 1-, and 30-μg/kg IV groups (range), first 4 hours of recovery): 90-94%
- dose at which the clinical response substantially plateaus ([3]; administered intravenously or orally): about 1 microgram/kilogram of body weight
- patients who received rescue medication ([3]; palonosetron-treated patients IV (range over dose groups), at 8 hours): 35.5-50.7%
- patients who received rescue therapy ([3]; palonosetron-treated patients IV (range over dose groups), within the first 2 hours): 21-31%
- % no EE ([4]; 0.1 μg/kg oral): 73%
- % with CR ([4]; 0.1 μg/kg oral): 60%
- nausea, position of treatment group relative to other groups ([4]; 0.3 μg/kg oral, 24-hour period following recovery): intermediate to the placebo group and the other palonosetron treatment groups
- % no EE ([4]; 0.3 μg/kg oral): 72%
- % with CR ([4]; 0.3 μg/kg oral): 61%
- % no EE (no emetic episodes) ([4]; 0.3 μg/kg oral): 50%
- % with CC (complete control) ([4]; 0.3 μg/kg oral): 37%
- % with CR (complete response) ([4]; 0.3 μg/kg oral): 37%
- Nausea Mean Score ([4]; 0.3 μg/kg oral): 0.83
- No Nausea (patients) ([4]; 0.3 μg/kg oral): 44.8%
- Severe Nausea (patients) ([4]; 0.3 μg/kg oral): 3.4%
- % no EE ([4]; 1 μg/kg oral): 81%
- % with CR ([4]; 1 μg/kg oral): 70%
- % no EE (no emetic episodes) ([4]; 1 μg/kg oral): 67%
- % with CC (complete control) ([4]; 1 μg/kg oral): 58%
- % with CR (complete response) ([4]; 1 μg/kg oral): 58%
- Nausea Mean Score ([4]; 1 μg/kg oral): 0.64
- No Nausea (patients) ([4]; 1 μg/kg oral): 52.8%
- Severe Nausea (patients) ([4]; 1 μg/kg oral): 3.8%
- patients free from emetic episodes ([4]; 1.0 μg/kg oral): 72%
- % no EE ([4]; 3 μg/kg oral): 82%
- % with CR ([4]; 3 μg/kg oral): 76%
- % no EE (no emetic episodes) ([4]; 3 μg/kg oral): 63%
- % with CC (complete control) ([4]; 3 μg/kg oral): 52%
- % with CR (complete response) ([4]; 3 μg/kg oral): 52%
- Nausea Mean Score ([4]; 3 μg/kg oral): 0.65
- No Nausea (patients) ([4]; 3 μg/kg oral): 55.8%
- Severe Nausea (patients) ([4]; 3 μg/kg oral): 7.7%
- patients free from emetic episodes ([4]; 3 μg/kg oral): 81%
- % no EE (no emetic episodes) ([4]; 10 μg/kg oral): 71%
- % with CC (complete control) ([4]; 10 μg/kg oral): 57%
- % with CR (complete response) ([4]; 10 μg/kg oral): 59%
- Nausea Mean Score ([4]; 10 μg/kg oral): 0.71
- No Nausea (patients) ([4]; 10 μg/kg oral): 51.1%
- Severe Nausea (patients) ([4]; 10 μg/kg oral): 2.2%
- patients free from emetic episodes ([4]; 10 μg/kg oral): 82%
- % no EE ([4]; 30 μg/kg oral): 69%
- % with CR ([4]; 30 μg/kg oral): 63%
- % no EE (no emetic episodes) ([4]; 30 μg/kg oral): 65%
- % with CC (complete control) ([4]; 30 μg/kg oral): 51%
- % with CR (complete response) ([4]; 30 μg/kg oral): 53%
- Nausea Mean Score ([4]; 30 μg/kg oral): 0.79
- No Nausea (patients) ([4]; 30 μg/kg oral): 44.8%
- Severe Nausea (patients) ([4]; 30 μg/kg oral): 5.2%
- nausea reported versus placebo ([4]; 1, 3, 10, and 30 μg/kg oral, 24-hour period following recovery): statistically significantly less nausea
- dose at which clinical response reached a plateau ([4]; orally administered): 1 µg/kg
- stability in solution [5]: stability of palonosetron increases in solution as its concentration decreases

— patent US20060074101A1, “Method of treating post operative nausea and vomiting” (Helsinn Healthcare SA, priority 2003, published 2006)
